Assay results reported in patent US20080311126A1, “Antisense Oligonucleotides Directed to Ribonucleotide Reducatase R2 and Uses Thereof in Combination Therapies for the Treatment of Cancer” (Genesense Technologies, Inc, priority 2004, published 2008).

Columns and labels:
Type in all cases: in vivo
[1] = test system: Caki-1 human renal cancer cells; test: Caki-1 renal tumour xenograft in SCID mice, SEQ ID NO:1 and chemotherapeutics; conditions: Caki (renal); Mouse CD-1
Description: Caki-1 human renal cancer cells (1×10^7 cells in […] of PBS) were subcutanteously injected into the right flank of 6-7 weeks old female SCID mice. After the size of tumour reached an approximate volume of 200 mm^3, 7 days post tumour cell injection, SEQ ID NO:1 was administered by bolus infusion into the tail vein every other day at 10 mg/kg. Control animals received saline alone for the same period. The antitumour effect of SEQ ID NO:1 was further compared to that of two chemotherapeutic agents: 5-FU and vinblastine. 5-FU was administered intraperitoneally at days 7-13, 21-27 and 35-36 with a dose of 13 mg/kg/day, while vinblastin was administered intraperitoneally at days 7, 14, 21, 28 and 35 at a dose of 0.6 mg/kg/week. Antitumour effects of each of these compounds were further compared to those of SEQ ID NO:1 in combination with 5-FU or with vinblastin. The two chemotherapeutic agents were applied as described above, one hour after the treatments with SEQ ID NO:1 when combination treatments occurred on the same day. All treatments were stopped at day 36. A day after the last treatment, tumours were excised from the animals and their weights were measured.

[2] = test system: Caki-1 human renal carcinoma; test: Caki-1 renal tumour xenograft in SCID mice, SEQ ID NO:1 and interferon alpha
Description: (§1) Cell Line: Human renal carcinoma cell line (Caki-1) was grown as monolayer culture in Minimum essential medium (α-MEM) supplemented with 10% fetal bovine serum (FEBS), 0.1 mM non-essential amino acid, 1.0 mM sodium pyruvate, 100 U/ml penicillin, 100 μg/ml streptomycin and 0.25 μg/ml amphotericin B and 2 mM L-alanyl-L-glutamine at 37° C. in an atmosphere of 5% CO2 in air. The tumour cells were routinely subcultured twice weekly by trypsin-EDTA treatment. The cells were harvested from subconfluent logarithmically growing culture by treatment with trypsin-EDTA and counted for tumour inoculation.
(§2) Tumour Inoculation: An acclimation period of at least 7 days was allowed between animal receipt and commencement of tumour inoculation. When the female SCID mice were 6-7 weeks of age (20-25 g), each mouse was subcutaneously (s.c.) injected with 5×10^6 Caki-1 human renal carcinoma cells in 0.1 ml of PBS at the right flank of the mice to induce tumour growth.
Dose-Preparation and Treatment: The dose for SEQ ID NO:1 was formulated using the following procedure. From a concentrated stock solution (usually prepared in ddH2O at a concentration of 50 mg/ml and kept at −80° C.), SEQ ID NO:1 was diluted with saline to achieve a final target concentration of 1 or 2.5 mg/ml on the first day of dosing. Enough SEQ ID NO:1 was diluted so that the compound could be administered by bolus infusion into the tail vein every other day for the duration of the experiment. Recombinant interferon alfa-2b (Intron A™) was utilized according to the dose and treatment schedules below. The treatments were started 7 days after the tumour cell inoculation when the tumour size reached an approximate volume of 125 mm^3. Each treatment group contained 10 tumour-bearing mice. Routes of administration are indicated as follows: intravenous (i.v.) and intratumoural (i:t.).
Groups and Treatments: The following treatment groups were evaluated: • 1. Saline treated group-1: saline 0.1 ml/mouse/48 hours, i.v., n=10 • 2. Saline treated group-2: saline 0.05 ml/mouse/5 days/week, i.t., n=10 • 3. […] Intron A 10^3 unit/5 days/week treated group: 10^3 unit Intron A in 0.05 ml saline, i.t., n=10 • 6. Intron A 10^5 unit/5 days/week treated group: 10^5 unit Intron A in 0.05 ml saline, i.t., n=10 • 7. SEQ ID NO:1 1 mg/kg Plus Intron A 10^3 treated group: “3+5”, n=10 • 8. SEQ ID NO:1 1 mg kg Plus Intron A 10^5 treated group: “3+6”, n=10 • 9. SEQ ID NO:1 2.5 mg/kg Plus Intron A […], n=10 • 10. SEQ ID NO:1 2.5 mg/kg Plus Intron A 10^5 treated group: “4+6”, n=10
Mice received 25 treatments with SEQ ID NO:1 and 30 treatments with Intron A. The dosing schedule for Intron A was: treatment with Intron A for 3 consecutive weeks, 1 week off, and treatment with Intron A again for another 3 consecutive weeks. The dosing schedule for SEQ ID NO:1 was treatment with SEQ ID NO:1 every other day for the duration of the experiment.
(§3) Endpoints: The effects of SEQ ID NO:1 and Intron A on tumour growth were determined. Tumour sizes were measured every week from day 7 after the tumour cell inoculation in two dimensions using a caliper, and the volume was expressed in mm^3 using the formula: V=0.5 a×b^2, where a and b are the long and short diameters of the tumour, respectively. Mean tumour volumes calculated from each measurement were then plotted in a standard graph to compare the anti-tumour efficacy to that of controls. A day after the last treatment, tumours were excised from the animals and their weights were measured.
A second independent in vivo study was conducted as described in Example 1 utilizing SCID mice (female, 6 weeks old) and Caki-1 (human renal carcinoma cell line) to test the efficacy of SEQ ID NO:1 in combination with IFN alpha Briefly, 5×10^6 Caki-1 human renal carcinoma cells in 0.1 ml of PBS were injected subcutaneously at the right flank of the mice to induce tumour growth. Treatments started on the seventh day after tumour cell injection. […]

[3] = test system: A498 human renal carcinoma; test: A498 renal tumour xenograft in SCID mice, SEQ ID NO:1 and interferon alpha
Description: as §1, with “line:” for “Line:”, “(A498)” for “(Caki-1)”, “(FBS),” for “(FEBS),”, “L-alanyl-1-glutamine” for “L-alanyl-L-glutamine”
as §2, with “subcutaneously” for “subcutaneously (s.c.)”, “9×10^6 A498” for “5×10^6 Caki-1”
Dose Preparation and Treatment: The dose for SEQ ID NO:1 was formulated using the following procedure. From a concentrated stock solution (usually prepared in ddH2O at a concentration of 50 mg/ml and kept at −80° C.), SEQ ID NO:1 was diluted with saline to achieve a final target concentration of 1 or 2.5 mg/ml on the first day of dosing. Enough SEQ ID NO:1 was diluted so that the compound could be administered by bolus infusion into the tail vein every other day for the duration of the experiment. Recombinant interferon alfa-2b (ntron A™) was employed according to the dose and treatment schedules below. The treatments were started 20 days after the tumour cell inoculation when the tumour size reached an approximate volume of 200 mm^3. Each treatment group contained 10 tumour-bearing mice. Routes of administration are as follows: intravenous (i.v.) and intratumoural (i.t.).
• 1. Saline treated group-1: saline 0.1 ml/mouse/48 hours, i.v., n=10 • 2. Saline treated group-2: saline 0.05 ml/mouse/5 days/week, i.t., n=10 • 3. SEQ ID NO:1 treated group: 1 mg/kg/48 hours in 0.1 ml saline, i.v. n=10 • 4. SEQ ID NO:1 treated group: 2.5 mg/kg/48 hours in 0.1 ml saline, i.v., n=10 • 5. […]
Treatment started from day 20 after inoculation of human renal tumour cells. […]
as §3, with “growth was” for “growth were”, “day 20” for “day 7”, “measured. […]” for “measured.”

Molecule	Tumour weight as % of saline control [1] [%]	anti-tumour efficacy (tumour volume, tumour weight) ([2]; Example 2, SEQ ID NO:1 1 or 2.5 mg/kg/48 hours i.v., Intron A 10^3 or 10^5 unit 5 days/week i.t.)	anti-tumour efficacy (tumour volume, tumour weight) ([2]; Example 3, SEQ ID NO:1 2.5 or 5 mg/kg every 2 days i.v., Intron 10^5 unit 5 days/week i.t.)	anti-tumour efficacy (tumour volume, tumour weight) ([2]; Example 4, oligonucleotide 2.5 mg/kg every 2 days i.v., Intron A 10^5 unit 5 days/week i.t.)	efficacy in combination with SEQ ID NO:1, subcutaneous versus intratumoural ([2]; Example 5, SEQ ID NO:1 2.5 mg/kg/2 days i.v. plus 100000 units Intron A x3/week s.c. or i.t.)	anti-tumour efficacy (tumour volume, tumour weight) ([3]; Example 6, SEQ ID NO:1 1 or 2.5 mg/kg/48 hours i.v., Intron A 10^3 or 10^5 unit 5 days/week i.t.)	anti-tumour efficacy (tumour volume, tumour weight) ([3]; Example 7, SEQ ID NO:1 2.5 mg/kg/2ds i.v., 10000 units Intron A x5/week for 2 weeks i.t.)
O=c1[nH]cc(F)c(=O)[nH]1 [5-FU, 5-fluorouracil, reference compound]	52	–	–	–	–	–	–
Recombinant interferon alfa-2b [Intron A]	–	significant anti-tumour efficacy	significant anti-tumour efficacy	significant anti-tumour efficacy	equally effective	significant anti-tumour efficacy	significant anti-tumour efficacy
